± gives the expanded uncertainty stated by the source.
Conditions: Liquid, Vibrating tube method

## CCF [fluoroethane]
283.5 K, 49990 kPa
  mass density: 805.67 ± 0.76 kg/m3
283.5 K, 60000 kPa
  mass density: 816.48 ± 0.87 kg/m3
283.5 K, 69990 kPa
  mass density: 826.06 ± 0.87 kg/m3
283.5 K, 79970 kPa
  mass density: 834.87 ± 0.89 kg/m3
283.5 K, 90040 kPa
  mass density: 843.3 ± 0.9 kg/m3
283.51 K, 10000 kPa
  mass density: 747.35 ± 0.69 kg/m3
283.51 K, 15000 kPa
  mass density: 756.91 ± 0.69 kg/m3
283.51 K, 20000 kPa
  mass density: 765.51 ± 0.7 kg/m3
283.51 K, 25000 kPa
  mass density: 773.62 ± 0.7 kg/m3
283.51 K, 30000 kPa
  mass density: 780.86 ± 0.71 kg/m3
283.51 K, 40000 kPa
  mass density: 794.13 ± 0.74 kg/m3
283.51 K, 100000 kPa
  mass density: 851.08 ± 0.91 kg/m3
283.52 K, 1000 kPa
  mass density: 727.11 ± 0.69 kg/m3
283.52 K, 3000 kPa
  mass density: 731.96 ± 0.69 kg/m3
283.52 K, 4990 kPa
  mass density: 736.6 ± 0.68 kg/m3
293.2 K, 1010 kPa
  mass density: 706.97 ± 0.72 kg/m3
293.2 K, 3010 kPa
  mass density: 712.87 ± 0.72 kg/m3
293.21 K, 5010 kPa
  mass density: 718.27 ± 0.7 kg/m3
293.21 K, 10010 kPa
  mass density: 730.51 ± 0.7 kg/m3
293.21 K, 15010 kPa
  mass density: 741.15 ± 0.7 kg/m3
293.21 K, 20000 kPa
  mass density: 750.65 ± 0.71 kg/m3
293.21 K, 25010 kPa
  mass density: 759.29 ± 0.72 kg/m3
293.21 K, 30010 kPa
  mass density: 767.25 ± 0.73 kg/m3
293.21 K, 70000 kPa
  mass density: 815.59 ± 0.9 kg/m3
293.21 K, 80000 kPa
  mass density: 825 ± 0.91 kg/m3
293.22 K, 40010 kPa
  mass density: 781.39 ± 0.75 kg/m3
293.22 K, 50000 kPa
  mass density: 793.87 ± 0.78 kg/m3
293.22 K, 60000 kPa
  mass density: 805.15 ± 0.9 kg/m3
293.22 K, 90000 kPa
  mass density: 833.51 ± 0.92 kg/m3
293.22 K, 99990 kPa
  mass density: 841.66 ± 0.94 kg/m3
303.23 K, 3010 kPa
  mass density: 692.69 ± 0.78 kg/m3
303.23 K, 5010 kPa
  mass density: 699.12 ± 0.73 kg/m3
303.23 K, 10000 kPa
  mass density: 713.26 ± 0.72 kg/m3
303.23 K, 15000 kPa
  mass density: 725.31 ± 0.72 kg/m3
303.23 K, 20010 kPa
  mass density: 735.85 ± 0.72 kg/m3
303.23 K, 30000 kPa
  mass density: 753.95 ± 0.74 kg/m3
303.24 K, 25010 kPa
  mass density: 745.33 ± 0.73 kg/m3
303.24 K, 40010 kPa
  mass density: 769.21 ± 0.77 kg/m3
303.24 K, 50000 kPa
  mass density: 782.6 ± 0.8 kg/m3
303.24 K, 60000 kPa
  mass density: 794.39 ± 0.92 kg/m3
303.24 K, 70000 kPa
  mass density: 805.57 ± 0.93 kg/m3
303.24 K, 80000 kPa
  mass density: 815.36 ± 0.94 kg/m3
303.25 K, 90000 kPa
  mass density: 824.43 ± 0.95 kg/m3
303.25 K, 100000 kPa
  mass density: 832.9 ± 0.96 kg/m3
313.14 K, 3000 kPa
  mass density: 669.48 ± 0.82 kg/m3
313.14 K, 5000 kPa
  mass density: 677.22 ± 0.77 kg/m3
313.14 K, 10000 kPa
  mass density: 694 ± 0.75 kg/m3
313.14 K, 15000 kPa
  mass density: 707.5 ± 0.74 kg/m3
313.15 K, 20000 kPa
  mass density: 719.54 ± 0.74 kg/m3
313.15 K, 25000 kPa
  mass density: 729.96 ± 0.75 kg/m3
313.15 K, 30010 kPa
  mass density: 739.29 ± 0.75 kg/m3
313.15 K, 40000 kPa
  mass density: 755.43 ± 0.79 kg/m3
313.15 K, 50000 kPa
  mass density: 770.06 ± 0.81 kg/m3
313.15 K, 60000 kPa
  mass density: 782.28 ± 0.95 kg/m3
313.15 K, 70000 kPa
  mass density: 794.18 ± 0.96 kg/m3
313.15 K, 80000 kPa
  mass density: 804.63 ± 0.97 kg/m3
313.16 K, 90000 kPa
  mass density: 814.08 ± 0.98 kg/m3
313.16 K, 100000 kPa
  mass density: 822.46 ± 1 kg/m3
323 K, 3000 kPa
  mass density: 644.53 ± 0.92 kg/m3
323 K, 5000 kPa
  mass density: 654.18 ± 0.82 kg/m3
323 K, 10000 kPa
  mass density: 673.87 ± 0.79 kg/m3
323 K, 15000 kPa
  mass density: 689.57 ± 0.77 kg/m3
323 K, 20000 kPa
  mass density: 702.96 ± 0.76 kg/m3
323 K, 25000 kPa
  mass density: 714.54 ± 0.77 kg/m3
323 K, 90000 kPa
  mass density: 804.1 ± 1 kg/m3
323.01 K, 30000 kPa
  mass density: 724.71 ± 0.77 kg/m3
323.01 K, 40000 kPa
  mass density: 742.42 ± 0.8 kg/m3
323.01 K, 50000 kPa
  mass density: 757.67 ± 0.83 kg/m3
323.01 K, 60000 kPa
  mass density: 770.9 ± 0.98 kg/m3
323.01 K, 69990 kPa
  mass density: 783.33 ± 0.99 kg/m3
323.01 K, 80000 kPa
  mass density: 794.16 ± 1 kg/m3
323.01 K, 100000 kPa
  mass density: 813.21 ± 1 kg/m3
332.98 K, 3000 kPa
  mass density: 616.38 ± 1.1 kg/m3
332.98 K, 5000 kPa
  mass density: 628.96 ± 0.91 kg/m3
332.98 K, 10010 kPa
  mass density: 653.01 ± 0.85 kg/m3
332.98 K, 50000 kPa
  mass density: 745.52 ± 0.85 kg/m3
332.98 K, 60000 kPa
  mass density: 759.62 ± 1 kg/m3
332.99 K, 15000 kPa
  mass density: 671.15 ± 0.8 kg/m3
332.99 K, 20010 kPa
  mass density: 686.12 ± 0.78 kg/m3
332.99 K, 25000 kPa
  mass density: 698.88 ± 0.79 kg/m3
332.99 K, 29990 kPa
  mass density: 710.09 ± 0.79 kg/m3
332.99 K, 39990 kPa
  mass density: 729.27 ± 0.82 kg/m3
332.99 K, 69990 kPa
  mass density: 772.51 ± 1 kg/m3
332.99 K, 80010 kPa
  mass density: 783.85 ± 1 kg/m3
332.99 K, 90000 kPa
  mass density: 794.07 ± 1 kg/m3
332.99 K, 100000 kPa
  mass density: 803.45 ± 1.1 kg/m3
342.85 K, 3000 kPa
  mass density: 582.54 ± 1.3 kg/m3
342.85 K, 5000 kPa
  mass density: 600.31 ± 1.1 kg/m3
342.85 K, 10000 kPa
  mass density: 630.51 ± 0.93 kg/m3
342.85 K, 15000 kPa
  mass density: 651.87 ± 0.84 kg/m3
342.85 K, 20000 kPa
  mass density: 668.76 ± 0.81 kg/m3
342.85 K, 25000 kPa
  mass density: 682.96 ± 0.81 kg/m3
342.85 K, 30000 kPa
  mass density: 695.28 ± 0.81 kg/m3
342.85 K, 40000 kPa
  mass density: 716.03 ± 0.84 kg/m3
342.85 K, 60000 kPa
  mass density: 748.38 ± 1.1 kg/m3
342.86 K, 50010 kPa
  mass density: 733.53 ± 0.87 kg/m3
342.86 K, 70000 kPa
  mass density: 762.03 ± 1.1 kg/m3
342.86 K, 79990 kPa
  mass density: 773.74 ± 1.1 kg/m3
342.86 K, 90010 kPa
  mass density: 784.53 ± 1.1 kg/m3
342.87 K, 100000 kPa
  mass density: 794.42 ± 1.1 kg/m3
352.86 K, 5000 kPa
  mass density: 566.12 ± 1.3 kg/m3
352.86 K, 10000 kPa
  mass density: 606.19 ± 1.1 kg/m3
352.86 K, 15000 kPa
  mass density: 631.59 ± 0.89 kg/m3
352.86 K, 19990 kPa
  mass density: 650.88 ± 0.85 kg/m3
352.86 K, 25000 kPa
  mass density: 666.7 ± 0.83 kg/m3
352.86 K, 29990 kPa
  mass density: 680.18 ± 0.83 kg/m3
352.86 K, 39990 kPa
  mass density: 702.62 ± 0.86 kg/m3
352.86 K, 50000 kPa
  mass density: 721.07 ± 0.89 kg/m3
352.86 K, 59990 kPa
  mass density: 736.86 ± 0.93 kg/m3
352.86 K, 70000 kPa
  mass density: 751.19 ± 1.1 kg/m3
352.86 K, 79990 kPa
  mass density: 763.56 ± 1.1 kg/m3
352.86 K, 90000 kPa
  mass density: 774.75 ± 1.1 kg/m3
352.87 K, 99990 kPa
  mass density: 785.11 ± 1.1 kg/m3
362.79 K, 4990 kPa
  mass density: 521.7 ± 1.6 kg/m3
362.79 K, 10000 kPa
  mass density: 579.49 ± 1.3 kg/m3
362.8 K, 15000 kPa
  mass density: 610.29 ± 0.97 kg/m3
362.8 K, 19990 kPa
  mass density: 632.41 ± 0.89 kg/m3
362.8 K, 24990 kPa
  mass density: 650.04 ± 0.86 kg/m3
362.8 K, 30000 kPa
  mass density: 664.91 ± 0.85 kg/m3
362.8 K, 40000 kPa
  mass density: 689.17 ± 0.88 kg/m3
362.8 K, 49990 kPa
  mass density: 708.84 ± 0.92 kg/m3
362.81 K, 59990 kPa
  mass density: 725.55 ± 0.95 kg/m3
362.81 K, 70000 kPa
  mass density: 740.64 ± 1.1 kg/m3
362.81 K, 80000 kPa
  mass density: 753.56 ± 1.1 kg/m3
362.81 K, 90000 kPa
  mass density: 765.31 ± 1.1 kg/m3
362.81 K, 99990 kPa
  mass density: 775.91 ± 1.2 kg/m3
